These results are taken from ChEMBL document CHEMBL2331175, “On dihydroorotate dehydrogenases and their inhibitors and uses” (J Med Chem, 2013).

Each structure is given as a SMILES string. pIC50, pKi: −log10 of the molar value. Some results are limits rather than exact numbers.

The nature of data set [1]: Half life in human. Type of data set: ADME, organism-based. As to conditions: in vivo.
Data set [2] deals with T1, Dihydroorotate dehydrogenase (Plasmodium falciparum, UniProt Q54A96).
T1 sequence (Q54A96 whole entry): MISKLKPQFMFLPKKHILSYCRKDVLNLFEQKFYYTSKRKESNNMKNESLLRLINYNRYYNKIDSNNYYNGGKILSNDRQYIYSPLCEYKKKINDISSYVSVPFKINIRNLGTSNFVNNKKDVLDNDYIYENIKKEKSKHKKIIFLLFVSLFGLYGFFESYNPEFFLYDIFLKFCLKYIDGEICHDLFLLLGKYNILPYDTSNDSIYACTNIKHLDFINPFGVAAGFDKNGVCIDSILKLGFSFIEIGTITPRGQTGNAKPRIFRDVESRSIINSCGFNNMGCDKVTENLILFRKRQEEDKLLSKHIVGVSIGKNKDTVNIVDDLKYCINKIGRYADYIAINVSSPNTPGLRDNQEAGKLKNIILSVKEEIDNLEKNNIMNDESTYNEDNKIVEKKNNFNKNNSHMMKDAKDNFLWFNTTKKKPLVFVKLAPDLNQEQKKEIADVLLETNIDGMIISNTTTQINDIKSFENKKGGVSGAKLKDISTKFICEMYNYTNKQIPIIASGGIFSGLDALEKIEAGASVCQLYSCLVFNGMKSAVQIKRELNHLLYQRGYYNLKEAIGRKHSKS
The data set is described as follows: Inhibition of plasmodium falciparum DHODH assessed as inhibition of [14C]bicarbonate incorporation into pyrimidine nucleotide by HPLC analysis.

Data set [3] addresses Dihydroorotate dehydrogenase (quinone), mitochondrial (Rattus norvegicus, UniProt Q63707). The data set is described as follows: Inhibition of rat purified recombinant DHODH.
Data set [4] addresses T2, Dihydroorotate dehydrogenase (quinone), mitochondrial (Homo sapiens, UniProt Q02127). The experiment in a line: Inhibition of human purified recombinant DHODH.
The target in data set [5] is Dihydroorotate dehydrogenase (quinone), mitochondrial (Rattus norvegicus) (UniProt Q63707). The data set is described as follows: Competitive inhibition of rat purified recombinant DHODH in presence of cofactor ubiquinone.
Data set [6] addresses T2, Dihydroorotate dehydrogenase (quinone), mitochondrial. The data set is described as follows: Competitive inhibition of human purified recombinant DHODH in presence of cofactor ubiquinone.
The target in data set [7] is Voltage-gated inwardly rectifying potassium channel KCNH2 (Homo sapiens, UniProt Q12809). The data set is described as follows: Inhibition of human ERG channel overexpressed in Chinese hamster CHOK1 cells by whole cell voltage clamp assay. Type of data set: cell-based, CHO-K1.
Voltage-gated inwardly rectifying potassium channel KCNH2, sequence (Q12809 whole entry): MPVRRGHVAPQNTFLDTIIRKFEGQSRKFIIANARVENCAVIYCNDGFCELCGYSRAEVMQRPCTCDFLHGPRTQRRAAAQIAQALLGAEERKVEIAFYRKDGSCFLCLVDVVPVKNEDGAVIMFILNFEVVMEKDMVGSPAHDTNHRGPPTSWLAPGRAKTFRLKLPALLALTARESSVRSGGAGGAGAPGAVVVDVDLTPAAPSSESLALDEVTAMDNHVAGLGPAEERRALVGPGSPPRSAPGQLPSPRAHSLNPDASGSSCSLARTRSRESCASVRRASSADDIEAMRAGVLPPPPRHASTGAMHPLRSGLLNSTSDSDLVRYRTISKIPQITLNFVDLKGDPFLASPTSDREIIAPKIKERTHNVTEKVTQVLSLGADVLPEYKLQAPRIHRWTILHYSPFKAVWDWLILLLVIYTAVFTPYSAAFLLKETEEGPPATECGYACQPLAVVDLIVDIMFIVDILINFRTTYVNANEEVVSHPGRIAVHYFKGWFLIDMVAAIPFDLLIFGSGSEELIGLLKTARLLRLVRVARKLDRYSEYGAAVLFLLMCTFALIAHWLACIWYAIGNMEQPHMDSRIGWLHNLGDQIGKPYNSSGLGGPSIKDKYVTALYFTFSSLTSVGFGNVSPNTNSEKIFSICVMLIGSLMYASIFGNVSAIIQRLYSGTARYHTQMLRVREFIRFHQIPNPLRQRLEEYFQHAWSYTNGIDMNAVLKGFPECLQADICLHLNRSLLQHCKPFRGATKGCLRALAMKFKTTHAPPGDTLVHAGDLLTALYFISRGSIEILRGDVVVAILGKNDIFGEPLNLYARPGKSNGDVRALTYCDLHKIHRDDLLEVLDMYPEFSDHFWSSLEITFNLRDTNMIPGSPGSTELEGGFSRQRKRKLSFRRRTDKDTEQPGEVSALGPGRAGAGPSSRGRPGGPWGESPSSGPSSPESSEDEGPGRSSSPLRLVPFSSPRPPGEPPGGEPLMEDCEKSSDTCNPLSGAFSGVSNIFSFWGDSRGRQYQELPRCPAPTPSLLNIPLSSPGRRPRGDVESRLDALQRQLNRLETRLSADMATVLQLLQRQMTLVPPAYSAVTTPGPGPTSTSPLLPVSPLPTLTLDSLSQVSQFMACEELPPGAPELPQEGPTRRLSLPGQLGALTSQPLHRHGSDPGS

T2 sequence (Q02127 whole entry): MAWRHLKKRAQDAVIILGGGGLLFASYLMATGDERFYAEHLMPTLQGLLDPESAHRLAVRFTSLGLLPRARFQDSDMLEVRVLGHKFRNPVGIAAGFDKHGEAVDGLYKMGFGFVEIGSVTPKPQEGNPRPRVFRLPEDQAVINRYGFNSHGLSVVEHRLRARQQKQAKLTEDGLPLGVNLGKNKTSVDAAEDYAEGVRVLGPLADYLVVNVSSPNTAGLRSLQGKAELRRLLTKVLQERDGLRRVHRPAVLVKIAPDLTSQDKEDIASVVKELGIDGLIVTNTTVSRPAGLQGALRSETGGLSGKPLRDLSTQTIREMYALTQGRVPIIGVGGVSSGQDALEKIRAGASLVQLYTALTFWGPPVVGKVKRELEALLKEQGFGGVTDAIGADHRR
Dihydroorotate dehydrogenase (quinone), mitochondrial (Rattus norvegicus, UniProt Q63707), sequence (Q63707 whole entry): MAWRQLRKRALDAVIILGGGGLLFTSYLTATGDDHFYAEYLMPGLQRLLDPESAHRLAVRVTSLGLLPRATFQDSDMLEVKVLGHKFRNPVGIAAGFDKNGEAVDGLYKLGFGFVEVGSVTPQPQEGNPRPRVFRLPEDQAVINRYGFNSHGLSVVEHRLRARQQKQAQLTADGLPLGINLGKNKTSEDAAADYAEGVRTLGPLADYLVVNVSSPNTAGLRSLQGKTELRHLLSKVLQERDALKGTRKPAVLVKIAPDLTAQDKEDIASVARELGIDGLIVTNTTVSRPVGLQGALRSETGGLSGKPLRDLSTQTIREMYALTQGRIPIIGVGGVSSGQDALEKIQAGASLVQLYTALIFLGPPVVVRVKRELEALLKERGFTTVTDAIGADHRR
Dihydroorotate dehydrogenase (quinone), mitochondrial (Rattus norvegicus), sequence (Q63707 whole entry): as above

In general, half-life refers to the time needed for the level to fall by half in the phase considered. On to `C/C(O)=C(\C#N)C(=O)Nc1ccc(C(F)(F)F)cc1` [TERIFLUNOMIDE], for which the half-life in data set [1] was above 336 h.
Still for that read-out and setting: the value for `Cc1cc(NC(=O)/C(C#N)=C(\O)C2CC2)ccc1C(F)(F)F` was 3.5 h.
By pKi is commonly meant −log10 of the Ki, conventionally taken in molar units. As a reminder, the pIC50 is −log10 of the IC50, conventionally taken in molar units. As for `O=C1C(O)=C([C@H]2CC[C@H](c3ccc(Cl)cc3)CC2)C(=O)c2ccccc21` [ATOVAQUONE], the negative-log Ki (pKi) in data set [2] was 4.57. The pIC50 in data set [3] is 6.15; in data set [4] it was 4.84. The Kic came to 60 nM in data set [5] and 2.7 µM in data set [6].
As for `Cc1nc2cc(OC(F)(F)F)ccc2n1-c1ccc(C(=O)NC2CC2)s1`, the pIC50 in data set [7] was above 5.55.
